Test results as given in patent US20190231757A1, “COMBINATION OF SPLEEN TYROSINE KINASE INHIBITORS AND OTHER THERAPEUTIC AGENTS” (Takeda Pharmaceutical Company Limited, priority 2016, published 2019).
Structures can show the parent of a compound that is named as a salt.

How the values were obtained:
TMD8 DLBCL xenografts [1] = test: Antitumor activity in CB17 SCID mice bearing TMD8 DLBCL xenografts, gemcitabine combination (Example 8); type: in vivo, mouse; conditions: Day 14, alone or combined
Experimental: Tumor growth inhibition was calculated on Day 14 of the study. The last measurement was taken on Day 40 of the study.
(§1) Experimental design: Female CB17 SCID mice (Taconic Biosciences; weight at treatment start was 19 g) were inoculated subcutaneously in the flank (cell suspension) with 5.0×10^6 TMD8 cells. Tumor growth was monitored with vernier calipers. Tumor volume was calculated using the formula V=W^2×L/2, where V=volume, W=width and L=length of the tumor. When the mean tumor volume reached approximately 215 mm^3, the animals were randomized into treatment groups (n=8/group). […] Tumor growth and body weight were measured twice per week. Tumor growth inhibition and body weight change were calculated on Day 14 of treatment.
(§2) Statistical analysis: The differences in the tumor growth trends over time between pairs of treatment groups were assessed using linear mixed effects regression models. These models account for the fact that each animal was measured at multiple time points. A separate model was fit for each comparison, and the areas under the curve (AUC) for each treatment group were calculated using the predicted values from the model. The percent decrease in AUC (dAUC) relative to the reference group was then calculated. […] Further details regarding pairwise comparisons are provided in the Example 2.
(§3) Drug combinations were assessed for synergy using observed AUC values. The change in AUC relative to the control was calculated for both single agent treatment groups as well as the combination group. The interaction between the two compounds was then assessed by comparing the change in AUC observed in the combination group to the sum of the changes observed in both single agents. The results can be divided into four categories: synergistic, additive, sub-additive, and antagonistic. Further details regarding combination analysis are provided in the Example 2.
(§4) Once a final analysis was selected, the tumor measurements observed on a date pre-specified by the researcher (typically the last day of treatment) were analyzed to assess tumor growth inhibition. For this analysis, a T/C ratio was calculated for each animal by dividing the tumor measurement for the given animal by the mean tumor measurement across all control animals. The T/C ratios across a treatment group were compared to the T/C ratios of the control group using a two-tailed Welch's t-test.

[2] = test system: OCI-Ly10 human lymphoma xenografts; test: Antitumor activity in SCID mice bearing OCI-Ly10 human lymphoma xenografts, lenalidomide combination (Example 10); type: in vivo, mouse; conditions: alone or combined
OCI-LY10 xenografts = test: Antitumor activity in CB17 SCID mice bearing OCI-LY10 xenografts, gemcitabine combination (Example 7); type: in vivo, mouse; conditions: Day 21, alone or combined
Experimental: Tumor growth inhibition was calculated on Day 21 of the study. The last measurement was taken on Day 42 of the study.
as §1, with “20” for “19”, “4.0×10^6 OCI-Ly10” for “5.0×10^6 TMD8”, “cells.” for “cells. Tumor growth was monitored with vernier calipers.”, “199” for “215”, “into 6” for “into”, “21” for “14”
as §2
as §3, with “analyses” for “analysis”
as §4

[3] = test system: OCI-Ly10 human DLBCL xenografts; test: Antitumor activity in SCID mice bearing OCI-Ly10 human DLBCL xenografts, ibrutinib or bendamustine combination (Example 5); type: in vivo, mouse; conditions: Day 21; Compound A 60 mg/kg PO QD; ibrutinib 6 mg/kg PO QD; bendamustine 1 mg/kg IV BIW (6 doses); alone or combined with Compound A; citrate
[4] = test system: CT26 mouse syngeneic colon cancer model; test: CT26 mouse syngeneic colon cancer model, prior non-clinical study; type: in vivo; conditions: single agents
[5] = test system: A20 mouse syngeneic B-cell lymphoma; test: Antitumor activity in Balb/c mice bearing A20 syngeneic B-cell lymphoma (Example 1); type: in vivo
Ly19 xenografts = test: Antitumor activity in SCID mice bearing Ly19 xenografts, bendamustine combination (Example 4); type: in vivo, mouse; conditions: alone or combined
TMD8 DLBCL xenografts [6] = test: Antitumor activity in CB17 SCID mice bearing TMD8 DLBCL xenografts, bendamustine combination (Example 3); type: in vivo, mouse; conditions: bendamustine 1 mg/kg IV BIW, alone or combined, Day 14
[7] = mouse, in vivo, po, 60 mg/kg
[8] = mouse, in vivo, po, 60 mg/kg; remark: listed apart in the source
[9] = Body weight and tolerability, TMD8 ABT-199/gemcitabine study (Example 9); type: in vivo, mouse; conditions: alone or combined with Compound A
Experimental: as §1, with “start was about 19 g)” for “start was 19 g)”, “reached approximately 245 mm^3, the” for “reached approximately 215 mm^3, the”, “randomized into 6 treatment groups” for “randomized into treatment groups”

[10] = test system: OCI-Ly10 human lymphoma xenografts; test: Antitumor activity in SCID mice bearing OCI-Ly10 human lymphoma xenografts, bendamustine and rituximab (Example 6); type: in vivo, mouse; conditions: Day 21, citrate
[11] = Compound A 60 mg/kg PO QD, gemcitabine 2.5 mg/kg IP Q3D
[12] = Compound A 60 mg/kg PO QD, anti-PD-1 10 mg/kg IP Q4D x3, alone or combined, Day 19
[13] = Day 14, Compound A 60 mg/kg PO QD x14, bendamustine 1.0 mg/kg IV BIW x2

Cn1cc(-c2nc(N[C@@H]3CCCC[C@@H]3N)c(F)c3c2C(=O)NC3)cn1 [Compound A, 6-((1R,2S)-2-aminocyclohexylamino)-7-fluoro-4-(1-methyl-1H-pyrazol-4-yl)-1H-pyrrolo[3,4-c]pyridine-3 (2H)-one citrate]
Mean Tumor Volume (mm^3) ± SEM (TMD8 DLBCL xenografts [1]; Compound A 60 mg/kg PO QD, gemcitabine 5 mg/kg IP Q3D x4): 957.2 ± 82.2 mm^3
T/C (TMD8 DLBCL xenografts [1]; Compound A 60 mg/kg, gemcitabine 5 mg/kg): 1.07
TGI ([2]; Day 21, Compound A 60 mg/kg PO QD x21, lenalidomide 10 mg/kg PO QD x21, citrate): 43.6%
ΔAUC ([2]; vs vehicle, Compound A 60 mg/kg, lenalidomide 10 mg/kg): 34.7 (p < 0.001)
Mean Tumor Volume (mm^3) ± SEM (OCI-LY10 xenografts; [11]): 409.4 ± 55.2 mm^3
TGI (%) (OCI-LY10 xenografts; [11]): 65.5%
T/C (OCI-LY10 xenografts; Compound A 60 mg/kg, gemcitabine 2.5 mg/kg): 0.35
TGI [3]: 38.8%
animals survived to 30 days after the last dose [4]: 20%
Mean Tumor Volume (mm^3) ± SEM ([5]; Compound A 60 mg/kg PO QD 21 d, anti-PD-1 10 mg/kg IP Q4D x3, alone or combined, Day 19): 1,582.9 ± 317.2 mm^3
T/C [5, 12]: 0.85
TGI (%) [5, 12]: 15.3%
dAUC (percent decrease in AUC, pairwise comparison) ([5]; reference 0.5% methylcellulose, Compound A 60 mg/kg, anti-PD-1 10 mg/kg, days >19 excluded): 10.2
Mean Tumor Volume (mm^3) ± SEM at Day 14 (Ly19 xenografts; [13]): 1683.9 ± 167.1 mm^3
TGI (%) (Ly19 xenografts; [13]): 32.6%
dAUC (Ly19 xenografts; vs vehicle, Compound A 60 mg/kg, bendamustine 1.0 mg/kg): 18.8
Mean Tumor Volume (mm^3) ± SEM (TMD8 DLBCL xenografts [6]; Compound A 60 mg/kg PO QD 14 d): 1,085.5 ± 173.3 mm^3
T/C (TMD8 DLBCL xenografts [6]; Compound A 60 mg/kg PO QD): 0.61
TGI (%) (TMD8 DLBCL xenografts [6]; Compound A 60 mg/kg PO QD): 38.5%
Maximum mean % BWL [7]: 0%
increase in mean body weight on Day 14 compared to Day 0 [8]: 1.6 g
% BW Change (Day Maximum) ([9]; Compound A 60 mg/kg PO QD 14 d, ABT-199 25 mg/kg PO QD 14 d, gemcitabine 5 mg/kg IP Q3D x4): 7.9 (14) %
Number of animals removed ([9]; Compound A 60 mg/kg, ABT-199 25 mg/kg, gemcitabine 5 mg/kg): 0
TGI ([10]; Compound A 30 mg/kg PO QD x21, bendamustine 1 mg/kg IV BIW, rituximab 1 mg/kg IV QW x3, alone or combined): 24.2%
TGI ([10]; Compound A 60 mg/kg PO QD x21, 60 mg/kg): 51.1%
